This note sets out measurements from patent publication US12516095B2, “Peptide hormone analogues” (IP2IPO INNOVATIONS LIMITED, priority 2019, dated 2026).

Starred links: 1 amine or outer side, 2 acyl side, 3 side chain; linkers in the order of their positions; H or OH if unused. Non-standard residues stand in square brackets, D forms with d. Residues, ends and D or L forms follow the SMILES beside them. Groups on a side chain read outwards from the residue. *: point of attachment. C20 diacid = O=C(O)CCCCCCCCCCCCCCCCCCC(=O)*; C18 diacid = O=C(O)CCCCCCCCCCCCCCCCC(=O)*; γGlu = O=C(O)[C@H](CCC(=O)[*:2])N[*:1]; Aib = CC(C)(N)C(=O)O

The first data set in a line: PK measurements for half life assessment in pigs. It is filed as in vivo, pig. To be noted: male large white pigs, single subcutaneous injection, plasma; time from tmax to half of Cmax; typically mean of four animals. The procedure:
Male large white pigs receive a single subcutaneous injection of the test compound at the start of study (0 hours). Repeated blood samples were taken from the pig over the proceeding 168 hours and plasma separated and stored at −20 to −80° C. Plasma concentration of the test compound was quantified using a radioimmunoassay or mass spectrum analysis. Time taken from tmax to half of Cmax was calculated and represents the half-life (t½) of the compound. Typically, the presented t½ is the mean of four separate animals.
Regarding “H-H[Aib]HGTFTSDYSKYLDAKRAQEFIEWLLQSHHQQHESPPPGK([γGlu-C20 diacid])-OH [Example 701]”, the Half life was 66 h.

The same data set, now with this note: male, large white, pig, plasma, sc, single subcutaneous injection, time from tmax to half of Cmax, typically mean of four animals.
Molecule `CC[C@H](C)[C@H](NC(=O)[C@H](Cc1ccccc1)NC(=O)[C@H](CCC(=O)O)NC(=O)[C@H](CCC(N)=O)NC(=O)[C@H](C)NC(=O)[C@H](CCCNC(=N)N)NC(=O)[C@H](CCCCN)NC(=O)[C@H](C)NC(=O)[C@H](CC(=O)O)NC(=O)[C@H](CC(C)C)NC(=O)[C@H](Cc1ccc(O)cc1)NC(=O)[C@H](CCCCN)NC(=O)[C@H](CO)NC(=O)[C@H](Cc1ccc(O)cc1)NC(=O)[C@H](CC(=O)O)NC(=O)[C@H](CO)NC(=O)[C@@H](NC(=O)[C@H](Cc1ccccc1)NC(=O)[C@@H](NC(=O)CNC(=O)[C@H](Cc1c[nH]cn1)NC(=O)C(C)(C)NC(=O)[C@@H](N)Cc1c[nH]cn1)[C@@H](C)O)[C@@H](C)O)C(=O)N[C@@H](CCC(=O)O)C(=O)N[C@@H](Cc1c[nH]c2ccccc12)C(=O)N[C@@H](CC(C)C)C(=O)N[C@@H](CC(C)C)C(=O)N[C@@H](CCC(N)=O)C(=O)N[C@@H](CO)C(=O)N[C@@H](Cc1c[nH]cn1)C(=O)N[C@@H](CCC(N)=O)C(=O)N[C@@H](Cc1c[nH]cn1)C(=O)N1CCC[C@H]1C(=O)N[C@@H](CO)C(=O)N1CCC[C@H]1C(=O)N1CCC[C@H]1C(=O)N1CCC[C@H]1C(=O)N[C@@H](CCCCNC(=O)CC[C@H](NC(=O)CCCCCCCCCCCCCCCCCCC(=O)O)C(=O)O)C(=O)O` [Example 544] (H-H[Aib]HGTFTSDYSKYLDAKRAQEFIEWLLQSHQHPSPPPK([γGlu-C20 diacid])-OH) had a half-life of 83 h. As to `CC[C@H](C)[C@H](NC(=O)[C@H](Cc1ccccc1)NC(=O)[C@H](CCC(=O)O)NC(=O)[C@H](Cc1c[nH]cn1)NC(=O)[C@H](C)NC(=O)[C@H](CCCNC(=N)N)NC(=O)[C@H](CCCCN)NC(=O)[C@H](C)NC(=O)[C@H](CC(=O)O)NC(=O)[C@H](CC(C)C)NC(=O)[C@H](Cc1ccc(O)cc1)NC(=O)[C@H](CCCCN)NC(=O)[C@H](CO)NC(=O)[C@H](Cc1ccc(O)cc1)NC(=O)[C@H](CC(=O)O)NC(=O)[C@H](CO)NC(=O)[C@@H](NC(=O)[C@H](Cc1ccccc1)NC(=O)[C@@H](NC(=O)CNC(=O)[C@H](Cc1c[nH]cn1)NC(=O)C(C)(C)NC(=O)[C@@H](N)Cc1c[nH]cn1)[C@@H](C)O)[C@@H](C)O)C(=O)N[C@@H](CCC(=O)O)C(=O)N[C@@H](Cc1c[nH]c2ccccc12)C(=O)N[C@@H](CC(C)C)C(=O)N[C@@H](CC(C)C)C(=O)N[C@@H](CCC(N)=O)C(=O)N[C@@H](CO)C(=O)N[C@@H](Cc1c[nH]cn1)C(=O)N[C@@H](CCC(N)=O)C(=O)N[C@@H](CCC(N)=O)C(=O)N[C@@H](Cc1c[nH]cn1)C(=O)N[C@@H](CO)C(=O)N1CCC[C@H]1C(=O)N1CCC[C@H]1C(=O)N1CCC[C@H]1C(=O)N[C@@H](CCCCNC(=O)[C@H](CO)NC(=O)CNC(=O)CC[C@H](NC(=O)CCCCCCCCCCCCCCCCC(=O)O)C(=O)O)C(=O)O` [Example 507] (H-H[Aib]HGTFTSDYSKYLDAKRAHEFIEWLLQSHQQHSPPPK([Ser-Gly-γGlu-C18 diacid])-OH), the half-life is 112 h. The molecule `CC[C@H](C)[C@H](NC(=O)[C@H](Cc1ccccc1)NC(=O)[C@H](CCC(=O)O)NC(=O)[C@H](CCCNC(=N)N)NC(=O)[C@H](C)NC(=O)[C@H](CCCNC(=N)N)NC(=O)[C@H](CCCCN)NC(=O)[C@H](C)NC(=O)[C@H](CC(=O)O)NC(=O)[C@H](CC(C)C)NC(=O)[C@H](Cc1ccc(O)cc1)NC(=O)[C@H](CCCCN)NC(=O)[C@H](CO)NC(=O)[C@H](Cc1ccc(O)cc1)NC(=O)[C@H](CC(=O)O)NC(=O)[C@H](CO)NC(=O)[C@@H](NC(=O)[C@H](Cc1ccccc1)NC(=O)[C@@H](NC(=O)CNC(=O)[C@H](Cc1c[nH]cn1)NC(=O)C(C)(C)NC(=O)[C@@H](N)Cc1c[nH]cn1)[C@@H](C)O)[C@@H](C)O)C(=O)N[C@@H](CCC(=O)O)C(=O)N[C@@H](Cc1c[nH]c2ccccc12)C(=O)N[C@@H](CC(C)C)C(=O)N[C@@H](CC(C)C)C(=O)N[C@@H](CCC(N)=O)C(=O)N[C@@H](CO)C(=O)N[C@@H](Cc1c[nH]cn1)C(=O)N[C@@H](CCC(N)=O)C(=O)N[C@@H](CCC(N)=O)C(=O)N[C@@H](Cc1c[nH]cn1)C(=O)N1CCC[C@H]1C(=O)N[C@@H](CO)C(=O)N1CCC[C@H]1C(=O)N1CCC[C@H]1C(=O)N1CCC[C@H]1C(=O)NCC(=O)N[C@@H](CCCCNC(=O)[C@H](CC(N)=O)NC(=O)CC[C@H](NC(=O)CCCCCCCCCCCCCCCCCCC(=O)O)C(=O)O)C(=O)O` [Example 705] (H-H[Aib]HGTFTSDYSKYLDAKRAREFIEWLLQSHQQHPSPPPGK([Asn-γGlu-C20 diacid])-OH) had a half-life of 84 h. Still for that read-out and setting: with `CC[C@H](C)[C@H](NC(=O)[C@H](Cc1ccccc1)NC(=O)[C@H](CCC(=O)O)NC(=O)[C@H](CCCNC(=N)N)NC(=O)[C@H](C)NC(=O)[C@H](CCCNC(=N)N)NC(=O)[C@H](CCCCN)NC(=O)[C@H](C)NC(=O)[C@H](CC(=O)O)NC(=O)[C@H](CC(C)C)NC(=O)[C@H](Cc1ccc(O)cc1)NC(=O)[C@H](CCCCN)NC(=O)[C@H](CO)NC(=O)[C@H](Cc1ccc(O)cc1)NC(=O)[C@H](CC(=O)O)NC(=O)[C@H](CO)NC(=O)[C@@H](NC(=O)[C@H](Cc1ccccc1)NC(=O)[C@@H](NC(=O)CNC(=O)[C@H](Cc1c[nH]cn1)NC(=O)C(C)(C)NC(=O)[C@@H](N)Cc1c[nH]cn1)[C@@H](C)O)[C@@H](C)O)C(=O)N[C@@H](CCC(=O)O)C(=O)N[C@@H](Cc1c[nH]c2ccccc12)C(=O)N[C@@H](CC(C)C)C(=O)N[C@@H](CC(C)C)C(=O)N[C@@H](CCC(N)=O)C(=O)N[C@@H](CO)C(=O)N[C@@H](Cc1c[nH]cn1)C(=O)N[C@@H](CCC(N)=O)C(=O)N[C@@H](CCC(N)=O)C(=O)N[C@@H](Cc1c[nH]cn1)C(=O)N[C@@H](CCC(=O)O)C(=O)N[C@@H](CO)C(=O)N1CCC[C@H]1C(=O)N1CCC[C@H]1C(=O)N1CCC[C@H]1C(=O)NCC(=O)N[C@@H](CCCCNC(=O)[C@H](CC(N)=O)NC(=O)CC[C@H](NC(=O)CCCCCCCCCCCCCCCCCCC(=O)O)C(=O)O)C(=O)O` [Example 704] (H-H[Aib]HGTFTSDYSKYLDAKRAREFIEWLLQSHQQHESPPPGK([Asn-γGlu-C20 diacid])-OH) the figure was 96 h; with `CC[C@H](C)[C@H](NC(=O)[C@H](Cc1ccccc1)NC(=O)[C@H](CCC(=O)O)NC(=O)[C@H](Cc1c[nH]cn1)NC(=O)[C@H](C)NC(=O)[C@H](CCCNC(=N)N)NC(=O)[C@H](CCCCN)NC(=O)[C@H](C)NC(=O)[C@H](CC(=O)O)NC(=O)[C@H](CC(C)C)NC(=O)[C@H](Cc1ccc(O)cc1)NC(=O)[C@H](CCCCN)NC(=O)[C@H](CO)NC(=O)[C@H](Cc1ccc(O)cc1)NC(=O)[C@H](CC(=O)O)NC(=O)[C@H](CO)NC(=O)[C@@H](NC(=O)[C@H](Cc1ccccc1)NC(=O)[C@@H](NC(=O)CNC(=O)[C@H](Cc1c[nH]cn1)NC(=O)C(C)(C)NC(=O)[C@@H](N)Cc1c[nH]cn1)[C@@H](C)O)[C@@H](C)O)C(=O)N[C@@H](CCC(=O)O)C(=O)N[C@@H](Cc1c[nH]c2ccccc12)C(=O)N[C@@H](CC(C)C)C(=O)N[C@@H](CC(C)C)C(=O)N[C@@H](CCC(N)=O)C(=O)N[C@@H](CO)C(=O)N[C@@H](Cc1c[nH]cn1)C(=O)N[C@@H](CCC(N)=O)C(=O)N[C@@H](CCC(N)=O)C(=O)N[C@@H](Cc1c[nH]cn1)C(=O)N[C@@H](CCC(=O)O)C(=O)N[C@@H](CO)C(=O)N1CCC[C@H]1C(=O)N1CCC[C@H]1C(=O)N1CCC[C@H]1C(=O)N[C@@H](CCCCNC(=O)CC[C@H](NC(=O)CCCCCCCCCCCCCCCCCCC(=O)O)C(=O)O)C(=O)O` [Example 588] (H-H[Aib]HGTFTSDYSKYLDAKRAHEFIEWLLQSHQQHESPPPK([γGlu-C20 diacid])-OH), 65 h. The same measure, in the same setting: with `CC[C@H](C)[C@H](NC(=O)[C@H](Cc1ccccc1)NC(=O)[C@H](CCC(=O)O)NC(=O)[C@H](Cc1c[nH]cn1)NC(=O)[C@H](C)NC(=O)[C@H](CCCNC(=N)N)NC(=O)[C@H](CCCCN)NC(=O)[C@H](C)NC(=O)[C@H](CC(=O)O)NC(=O)[C@H](CC(C)C)NC(=O)[C@H](Cc1ccc(O)cc1)NC(=O)[C@H](CCCCN)NC(=O)[C@H](CO)NC(=O)[C@H](Cc1ccc(O)cc1)NC(=O)[C@H](CC(=O)O)NC(=O)[C@H](CO)NC(=O)[C@@H](NC(=O)[C@H](Cc1ccccc1)NC(=O)[C@@H](NC(=O)CNC(=O)[C@H](Cc1c[nH]cn1)NC(=O)C(C)(C)NC(=O)[C@@H](N)Cc1c[nH]cn1)[C@@H](C)O)[C@@H](C)O)C(=O)N[C@@H](CCC(=O)O)C(=O)N[C@@H](Cc1c[nH]c2ccccc12)C(=O)N[C@@H](CC(C)C)C(=O)N[C@@H](CC(C)C)C(=O)N[C@@H](CCC(N)=O)C(=O)N[C@@H](CO)C(=O)N[C@@H](Cc1c[nH]cn1)C(=O)N[C@@H](CCC(N)=O)C(=O)N[C@@H](CCC(N)=O)C(=O)N[C@@H](Cc1c[nH]cn1)C(=O)N[C@@H](CCC(=O)O)C(=O)N[C@@H](CO)C(=O)N1CCC[C@H]1C(=O)N1CCC[C@H]1C(=O)N1CCC[C@H]1C(=O)N[C@@H](CCCCNC(=O)[C@H](CO)NC(=O)CNC(=O)CC[C@H](NC(=O)CCCCCCCCCCCCCCCCC(=O)O)C(=O)O)C(=O)O` [Example 587] (H-H[Aib]HGTFTSDYSKYLDAKRAHEFIEWLLQSHQQHESPPPK([Ser-Gly-γGlu-C18 diacid])-OH) the figure was 84 h.

The term half-life denotes the time needed for the level to fall by half in the phase considered. A lower half-life goes with rapid decline.
